Measurements reported in PMC10447463, “Data-mining unveils structure–property–activity correlation of viral infectivity enhancing self-assembling peptides” (Nature Communications, 2023).
Like-named read-outs stand apart in the source and are kept apart here.

What was measured:
[1] = assay type: physicochemical; conditions: for ThT Cat. / ThT-Fluorescence (categorical): ThT-active if fluorescence at least twice the control
In short: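 Preformed peptide fibrils (1 mg/mL) mixed with 50 µM ThT in PBS, 15 min at RT, fluorescence ex 440/em 488 nm versus PBS blank, triplicates. Zeta potential: peptides at 1 mg/mL in PBS pH 7.4, aged 1 d at RT, diluted in 1 mM KCl, Smoluchowski from electrophoretic mobility.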

[2] = Turbidity, derived count rate of scattered light; assay type: physicochemical; conditions: for Count Rate / kcps: derived count rate of scattered light at 633 nm, 173°, from zeta-potential measurement, 0.1 mg/mL in 1 mM KCl after 1 d at 1 mg/mL in PBS, turbidity / microscopic aggregation, mean of triplicate
In short: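 Samples: 1 mg/mL in PBS pH 7.4 (from DMSO), 1 d at RT, then diluted in 1 mM KCl immediately before measurement. Triplicates, two independent runs averaged.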

[3] = ThT fluorescence category, 1 if Rel. ThT >2
[4] = Log10 of derived count rate of scattered light (turbidity)
[5] = log10 of derived count rate of scattered light (turbidity)
[6] = turbidity, Log10 of derived count rate of scattered light, Figure 3A source data
[7] = turbidity, log10 of derived count rate of scattered light
[8] = logarithm of count rate in kcps

Row | Substance | Tht category (> 2 to blank = +) ([1]; Fig S10 panel D) | Tht category (> 2 to blank = +) ([1]; FigS12 panel A) | ThT Cat, ([1]; FigS12 panel B) | ThT Cat, ([1]; ThT category, 1 if Rel. ThT >2) | ThT Cat. / ThT-Fluorescence (categorical) [1] | Log10 Count Rate [2, 4] | Count Rate / kcps [2] | Log10 Count Rate [2, 6] | ThT Cat. ([1]; Fig S10 panel E) | ThT Cat. ([1]; ThT category, 1 if Rel. ThT >2) | Log10 Count Rate [2, 7] | other results
1 | CEFEFQF | 0 (ThT-inactive (N-Fold <2)) | 0 (ThT-inactive (N-Fold <2)) | 0 (ThT-inactive (N-Fold <2)) | 0 (ThT-inactive (N-Fold <2)) | 0 (ThT-inactive (N-Fold <2)) | 2.565 | 367 kcps | 2.565 |  |  |  | ThT Cat. [1, 3]: 0 (ThT-inactive (N-Fold <2)); Log10 Count Rate [2, 5]: 2.565
2 | CEIEIQI | 1 (ThT. Cat is 1, if Rel. ThT >2) | 1 (ThT. Cat is 1, if Rel. ThT >2) | 1 (ThT. Cat is 1, if Rel. ThT >2) | 1 (ThT. Cat is 1, if Rel. ThT >2) | 1 (ThT. Cat is 1, if Rel. ThT >2) | 1.716 | 52 kcps | 1.716 | 1 (ThT. Cat is 1, if Rel. ThT >2) | 1 (ThT. Cat is 1, if Rel. ThT >2) | 1.716 | 
3 | CETMYDKILKNLSRSR | 0 (ThT-inactive (N-Fold <2)) | 0 (ThT-inactive (N-Fold <2)) | 0 (ThT-inactive (N-Fold <2)) | 0 (ThT-inactive (N-Fold <2)) | 0 (ThT-inactive (N-Fold <2)) | 3.041 | 1099 kcps | 3.041 | 0 (ThT-inactive (N-Fold <2)) | 0 (ThT-inactive (N-Fold <2)) | 3.041 | 
4 | CHLHLQL | 1 (ThT. Cat is 1, if Rel. ThT >2) | 1 (ThT. Cat is 1, if Rel. ThT >2) | 1 (ThT. Cat is 1, if Rel. ThT >2) | 1 (ThT. Cat is 1, if Rel. ThT >2) | 1 (ThT. Cat is 1, if Rel. ThT >2) | 3.062 | 1155 kcps | 3.062 | 1 (ThT. Cat is 1, if Rel. ThT >2) | 1 (ThT. Cat is 1, if Rel. ThT >2) | 3.062 | Log10 Count Rate [2, 8]: 3.062
5 | CKFC | 0 (ThT-inactive (N-Fold <2)) | 0 (ThT-inactive (N-Fold <2)) | 0 (ThT-inactive (N-Fold <2)) | 0 (ThT-inactive (N-Fold <2)) | 0 (ThT-inactive (N-Fold <2)) | 2.371 | 235 kcps | 2.371 | 0 (ThT-inactive (N-Fold <2)) | 0 (ThT-inactive (N-Fold <2)) | 2.371 | 
6 | CKFKFQF | 1 (ThT. Cat is 1, if Rel. ThT >2) |  |  | 1 (ThT. Cat is 1, if Rel. ThT >2) | 1 (ThT. Cat is 1, if Rel. ThT >2) | 3.725 | 5303 kcps | 3.725 | 1 (ThT. Cat is 1, if Rel. ThT >2) | 1 (ThT. Cat is 1, if Rel. ThT >2) | 3.725 | Count Rate ([2]; T0, mean of n = 3): 719.1 kcps; Count Rate ([2]; T0, replicate 2): 718.1 kcps; Count Rate ([2]; T0, replicate 3): 875.1 kcps; Count Rate ([2]; T2m, mean of n = 3): 801.2 kcps; Count Rate ([2]; T2m, replicate 1): 2097 kcps; Count Rate ([2]; T2m, replicate 2): 115.2 kcps; Count Rate ([2]; T2m, replicate 3): 191.5 kcps; Count Rate ([2]; T1d, mean of n = 3): 1387.9 kcps; Count Rate ([2]; T1d, replicate 1): 43.1 kcps; Count Rate ([2]; T1d, replicate 2): 2192.2 kcps; Count Rate ([2]; T1d, replicate 3): 1928.4 kcps; Log10 Count Rate [2, 8]: 3.725
7 | CKFKFQFNM | 1 (ThT. Cat is 1, if Rel. ThT >2) |  |  | 1 (ThT. Cat is 1, if Rel. ThT >2) | 1 (ThT. Cat is 1, if Rel. ThT >2) | 3.347 | 2224 kcps | 3.347 | 1 (ThT. Cat is 1, if Rel. ThT >2) | 1 (ThT. Cat is 1, if Rel. ThT >2) | 3.347 | Log10 Count Rate [2, 8]: 3.347
8 | CKFKFQFNMW | 1 (ThT. Cat is 1, if Rel. ThT >2) |  |  | 1 (ThT. Cat is 1, if Rel. ThT >2) | 1 (ThT. Cat is 1, if Rel. ThT >2) | 3.613 | 4107 kcps | 3.613 |  |  |  | ThT Cat. [1, 3]: 1 (ThT. Cat is 1, if Rel. ThT >2); Log10 Count Rate [2, 5]: 3.613
9 | CKFKFQFNMWQ | 1 (ThT. Cat is 1, if Rel. ThT >2) |  |  | 1 (ThT. Cat is 1, if Rel. ThT >2) | 1 (ThT. Cat is 1, if Rel. ThT >2) | 2.154 | 143 kcps | 2.154 | 1 (ThT. Cat is 1, if Rel. ThT >2) | 1 (ThT. Cat is 1, if Rel. ThT >2) | 2.154 | 
10 | CKFQC | 0 (ThT-inactive (N-Fold <2)) | 0 (ThT-inactive (N-Fold <2)) | 0 (ThT-inactive (N-Fold <2)) | 0 (ThT-inactive (N-Fold <2)) | 0 (ThT-inactive (N-Fold <2)) | 2.115 | 130 kcps | 2.115 | 0 (ThT-inactive (N-Fold <2)) | 0 (ThT-inactive (N-Fold <2)) | 2.115 | 
11 | CKIKIQIII | 1 (ThT. Cat is 1, if Rel. ThT >2) |  |  | 1 (ThT. Cat is 1, if Rel. ThT >2) | 1 (ThT. Cat is 1, if Rel. ThT >2) | 3.695 | 4953 kcps | 3.695 |  | 1 (ThT. Cat is 1, if Rel. ThT >2) | 3.695 | 
12 | CKIKQIINM | 1 (ThT. Cat is 1, if Rel. ThT >2) |  |  | 1 (ThT. Cat is 1, if Rel. ThT >2) | 1 (ThT. Cat is 1, if Rel. ThT >2) | 3.957 | 9058 kcps | 3.957 | 1 (ThT. Cat is 1, if Rel. ThT >2) | 1 (ThT. Cat is 1, if Rel. ThT >2) | 3.957 | 
13 | CKWKWQW | 0 (ThT-inactive (N-Fold <2)) |  |  | 0 (ThT-inactive (N-Fold <2)) | 0 (ThT-inactive (N-Fold <2)) | 3.876 | 7511 kcps | 3.876 |  |  |  | ThT Cat. [1, 3]: 0 (ThT-inactive (N-Fold <2)); Log10 Count Rate [2, 5]: 3.876; Log10 Count Rate [2, 8]: 3.876
14 | CKYKYQY | 1 (ThT. Cat is 1, if Rel. ThT >2) | 1 (ThT. Cat is 1, if Rel. ThT >2) | 1 (ThT. Cat is 1, if Rel. ThT >2) | 1 (ThT. Cat is 1, if Rel. ThT >2) | 1 (ThT. Cat is 1, if Rel. ThT >2) | 3.026 | 1061 kcps | 3.026 |  |  |  | ThT Cat. [1, 3]: 1 (ThT. Cat is 1, if Rel. ThT >2); Log10 Count Rate [2, 5]: 3.026
